This is an account of results in ChEMBL document CHEMBL1201862, “PubChem BioAssay data set” (2004).

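Following 48 hours of exposure in 96-well plates, responses at five concentrations were used to interpolate endpoints linearly. GI50: concentration for 50% inhibition of growth.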 Activity calls are given as the source filed them. Rule as the data show it: active = GI50 up to about 1.1 µM and inactive = higher.

Among the test systems are SK-MEL-2; OVCAR-4; RPMI-8226; NCI-H23; HL-60; LOX IMVI; OVCAR-8; IGROV-1; HOP-92; SF-295; UACC-62; MOLT-4; MDA-MB-435; SK-OV-3; PC-3; EKVX; TK-10; DU-145; UO-31; HCC 2998.
Common to all, as to test: NCI tumour cell line growth inhibition, 48 h

With `COC(=O)/C=C(/C(=O)OC)c1c(C)cc2c(C)cc(C)cc(C)c1-2`, the GI50 with SK-MEL-2 was 20 µM (inactive); in the experiment with OVCAR-4 it was 22.3 µM (inactive); in the experiment on RPMI-8226, 9.79 µM (inactive); with NCI-H23 it was 18.5 µM (inactive); in the experiment on HL-60 it was 4.13 µM (inactive); in the experiment on LOX IMVI it was 11.7 µM (inactive). Also, the GI50 with OVCAR-8 is 25.4 µM (inactive); in the experiment with IGROV-1, 23.3 µM (inactive); in the experiment on HOP-92 it was 31.6 µM (inactive); in the experiment with SF-295 it was 7.24 µM (inactive); in the experiment on UACC-62 it was 9.77 µM (inactive); with MOLT-4 it was 5.46 µM (inactive). The GI50 in the experiment on MDA-MB-435 was 2.77 µM (inactive); in the experiment with SK-OV-3, 21.5 µM (inactive); in the experiment on PC-3, 19 µM (inactive); with EKVX, 32.1 µM (inactive); in the experiment with TK-10 it was 27.1 µM (inactive); in the experiment with DU-145, 22.4 µM (inactive). Moreover, the figures for the GI50 in the experiment on UO-31 and in the experiment on HCC 2998 were 23 µM (inactive) and 16.4 µM (inactive), respectively.
Consider `CCOC(=O)C(C(=O)c1ccccc1C(=O)OC)=P(c1ccccc1)(c1ccccc1)c1ccccc1`, for which the GI50 in the experiment with SK-MEL-2, with OVCAR-4, in the experiment on RPMI-8226, in the experiment on NCI-H23, in the experiment with HL-60 and in the experiment on LOX IMVI was > 10 µM (inactive) each time. For the same compound, the GI50 in the experiment with OVCAR-8, in the experiment with IGROV-1, in the experiment with HOP-92, in the experiment with SF-295, in the experiment on UACC-62 and in the experiment on MOLT-4 was > 10 µM (inactive) throughout. Also, the GI50 in the experiment with MDA-MB-435, in the experiment with SK-OV-3, in the experiment on PC-3, in the experiment on EKVX, in the experiment on TK-10 and with DU-145 was > 10 µM (inactive) each time. The GI50 in the experiment with UO-31 and with HCC 2998 was > 10 µM (inactive) in each case.
For the compound `COc1ccccc1C(=O)N(Cc1ccccc1)c1ccc(Cl)c(C(=O)OC(C)C)c1`, the GI50 with SK-MEL-2 is 14.9 µM (inactive); with OVCAR-4, 15.6 µM (inactive); in the experiment on RPMI-8226, 5.69 µM (inactive); in the experiment with NCI-H23 it was 20.6 µM (inactive); in the experiment on HL-60, 9.4 µM (inactive); in the experiment with LOX IMVI, 28.2 µM (inactive). The GI50 in the experiment with OVCAR-8 is 27.8 µM (inactive); in the experiment on IGROV-1, 25.8 µM (inactive); in the experiment on HOP-92, 6.67 µM (inactive); in the experiment on SF-295, 14.3 µM (inactive); with UACC-62, 19.8 µM (inactive); in the experiment on MOLT-4, 14.4 µM (inactive). Also, the GI50 in the experiment on MDA-MB-435 is 27 µM (inactive); with SK-OV-3, 25.4 µM (inactive); with PC-3, 7.53 µM (inactive); with EKVX, 16.7 µM (inactive); with TK-10, 26.8 µM (inactive); in the experiment on DU-145 it was 32.4 µM (inactive). Moreover, the GI50 with UO-31 is 7.71 µM (inactive); in the experiment on HCC 2998, 18.2 µM (inactive).
For `CC(=O)OCC1(C)C(O)CCC2(C)C1CCC1CC3CC12CCC3(O)CO` (stereo not given), the GI50 was > 100 µM (inactive) with SK-MEL-2; > 87.5 µM (inactive) in the experiment with OVCAR-4; 47.5 µM (inactive) in the experiment on RPMI-8226; 58.7 µM (inactive) with NCI-H23; 6.35 µM (inactive) in the experiment on HL-60; 44.3 µM (inactive) with LOX IMVI. Further, the GI50 is 44.1 µM (inactive) in the experiment with OVCAR-8; > 47 µM (inactive) in the experiment with IGROV-1; > 81.5 µM (inactive) with HOP-92; 10.8 µM (inactive) with SF-295; 61.8 µM (inactive) with UACC-62; > 56.5 µM (inactive) with MOLT-4. The GI50 in the experiment on MDA-MB-435 was > 100 µM (inactive); in the experiment with SK-OV-3 it was > 100 µM (inactive); with PC-3 it was > 91 µM (inactive); with EKVX it was > 100 µM (inactive); with TK-10, > 100 µM (inactive); with DU-145, 42.6 µM (inactive). Besides, the GI50 in the experiment with UO-31 was 25 µM (inactive); with HCC 2998 it was 20.8 µM (inactive).
Turning to `c1ccc(Cc2cccc3cc(-c4ccc(-c5ccccc5)cc4)[nH]c23)cc1`, the GI50 in the experiment with SK-MEL-2 is > 100 µM (inactive); in the experiment with OVCAR-4 it was 19.7 µM (inactive); in the experiment on RPMI-8226, 71.4 µM (inactive); in the experiment with NCI-H23, > 100 µM (inactive); with HL-60, > 100 µM (inactive); in the experiment with LOX IMVI it was > 100 µM (inactive). Moreover, the GI50 in the experiment on OVCAR-8 is 45.8 µM (inactive); in the experiment with IGROV-1, > 100 µM (inactive); with HOP-92, > 100 µM (inactive); in the experiment on SF-295, > 100 µM (inactive); in the experiment on UACC-62, > 100 µM (inactive); in the experiment with MOLT-4, > 100 µM (inactive). Besides, the GI50 in the experiment with MDA-MB-435 was > 100 µM (inactive); in the experiment on SK-OV-3, > 100 µM (inactive); in the experiment on PC-3 it was 61.9 µM (inactive); in the experiment with EKVX it was > 100 µM (inactive); in the experiment with TK-10, > 100 µM (inactive); in the experiment with DU-145, 54.6 µM (inactive). Also, the GI50 with UO-31 was > 100 µM (inactive); with HCC 2998, 95.1 µM (inactive).
As for `C[N+](C)(C)CCN[N+]1(C)CCCc2ccccc21` (stereo not given), the GI50 was > 100 µM (inactive) in the experiment on SK-MEL-2; > 100 µM (inactive) in the experiment with OVCAR-4; 32.8 µM (inactive) in the experiment with RPMI-8226; > 100 µM (inactive) in the experiment with NCI-H23; 0.67 µM (active) in the experiment on HL-60; > 100 µM (inactive) in the experiment on LOX IMVI. The GI50 in the experiment on OVCAR-8 is > 100 µM (inactive); in the experiment on IGROV-1, > 100 µM (inactive); in the experiment on HOP-92, > 100 µM (inactive); in the experiment with SF-295 it was > 100 µM (inactive); in the experiment with UACC-62 it was > 100 µM (inactive); in the experiment with MOLT-4 it was 31 µM (inactive). Further, the GI50 in the experiment with MDA-MB-435, with SK-OV-3, in the experiment with PC-3, in the experiment on EKVX, in the experiment on TK-10 and with DU-145 was > 100 µM (inactive) each time. Moreover, the GI50 with UO-31 and in the experiment on HCC 2998 was > 100 µM (inactive) in each case.
Regarding `Cc1c(C(=O)c2ccc(N)c3ccccc23)c2ccccc2n1CCN1CCOCC1`, the GI50 is 18.6 µM (inactive) in the experiment with SK-MEL-2; 3.1 µM (inactive) in the experiment on OVCAR-4; 23.6 µM (inactive) in the experiment on RPMI-8226; 29.7 µM (inactive) with NCI-H23; 22.3 µM (inactive) in the experiment on HL-60; 22.5 µM (inactive) in the experiment on LOX IMVI. Also, the GI50 in the experiment on OVCAR-8 is 31.2 µM (inactive); in the experiment on IGROV-1, 27.1 µM (inactive); in the experiment with HOP-92, 21.9 µM (inactive); with SF-295, 3.15 µM (inactive); with UACC-62, 16.4 µM (inactive); in the experiment with MOLT-4, 12 µM (inactive). The GI50 is 2.02 µM (inactive) in the experiment with MDA-MB-435; 1.97 µM (inactive) in the experiment with SK-OV-3; 27.5 µM (inactive) in the experiment on PC-3; 29.1 µM (inactive) with EKVX; 31 µM (inactive) with TK-10; 31.1 µM (inactive) in the experiment on DU-145. The GI50 is 25.5 µM (inactive) in the experiment with UO-31 and 21.1 µM (inactive) in the experiment with HCC 2998.
For the compound `CCC1(O)C(=O)OCc2c1cc1n(c2=O)Cc2cc3cc(N)ccc3nc2-1` (stereo not given), the GI50 in the experiment with SK-MEL-2 was 0.0964 µM (active); in the experiment on OVCAR-4, 0.257 µM (active); with RPMI-8226, 0.0341 µM (active); with NCI-H23, < 0.01 µM (active); in the experiment with HL-60, < 0.01 µM (active); with LOX IMVI, < 0.01 µM (active). Besides, the GI50 in the experiment on OVCAR-8 was < 0.0128 µM (active); with IGROV-1, 0.109 µM (active); in the experiment on HOP-92 it was 0.0535 µM (active); in the experiment with SF-295, < 0.01 µM (active); in the experiment on UACC-62, < 0.01 µM (active); with MOLT-4, < 0.01 µM (active). Moreover, the GI50 was 0.0241 µM (active) in the experiment on MDA-MB-435; < 0.01 µM (active) in the experiment with SK-OV-3; 0.0702 µM (active) in the experiment on PC-3; 0.855 µM (active) with EKVX; 1.9 µM (inactive) in the experiment with TK-10; < 0.01 µM (active) in the experiment on DU-145. Further, the GI50 is < 0.01 µM (active) in the experiment with UO-31 and 0.0345 µM (active) in the experiment with HCC 2998.
On to `COc1ncnc2c1cnn2Cc1cn(COCC(O)CO)nn1` (stereo not given), for which the GI50 with SK-MEL-2, with OVCAR-4, in the experiment on RPMI-8226, with NCI-H23, in the experiment on HL-60 and in the experiment with LOX IMVI was > 100 µM (inactive) each time. For the same compound, the GI50 in the experiment on OVCAR-8 was > 100 µM (inactive); in the experiment with IGROV-1, > 100 µM (inactive); with HOP-92, 22.8 µM (inactive); in the experiment with SF-295, > 100 µM (inactive); in the experiment with UACC-62, > 100 µM (inactive); in the experiment with MOLT-4, > 100 µM (inactive). The GI50 with MDA-MB-435, in the experiment with SK-OV-3, in the experiment with PC-3, in the experiment with EKVX, in the experiment on TK-10 and in the experiment on DU-145 was > 100 µM (inactive) in each case. Besides, the GI50 in the experiment on UO-31 and in the experiment on HCC 2998 was > 100 µM (inactive) each time.
